# Source: ChEMBL document CHEMBL1148818, “1,2,4-triazol-3-yl-thiopropyl-tetrahydrobenzazepines: a series of potent and selective dopamine D(3) receptor antagonists” (J Med Chem, 2007)
# What was measured:
# [1] = in vivo; settings: Sprague-Dawley, rat
# [2] = in vivo; settings: Sprague-Dawley, rat; remark: listed apart in the source
# [3] = in vivo; settings: Sprague-Dawley, rat, whole blood
# [4] = in vitro; settings: human, liver microsomes
bioavailability [1] [%],Vd [2] [L/kg],clearance [3] [mL/min/kg],CLint scaled [4] [mL/min/g],Structure (SMILES)
24,3.4,38,,Cc1ccc2c(-c3nnc(SCCCN4CCc5ccc(-c6cc(C)on6)cc5CC4)n3C)cccc2n1
27,7.9,59,4.7,Cc1ccc2c(-c3nnc(SCCCN4CCc5ccc(-c6ncc(C)o6)cc5CC4)n3C)cccc2n1
,,,6.4,Cc1cnc(-c2ccc3c(c2)CCN(CCCSc2nnc(-c4cccn4C)n2C)CC3)o1
